Where a name gives a salt, the structure may show the parent alone.
Experiments:
Des1 (h) = target: T1, Des1 (h) (Homo sapiens, UniProt O15121); test: Measurement of Dihydroceramide Desaturase-1 (Des-1) activity in intact Jurkat cells labeled with DhCer-C6-NBD (HPLC); type: cell-based; details: for IC50: intact Jurkat cells, given as concentration range, or <X / >X if measured at one concentration X only, read-out: Des1 (h) Jurkat IC50
T1 construct: endogenous in cells; host or cells: parental Jurkat cells
T1 sequence (O15121 1-323): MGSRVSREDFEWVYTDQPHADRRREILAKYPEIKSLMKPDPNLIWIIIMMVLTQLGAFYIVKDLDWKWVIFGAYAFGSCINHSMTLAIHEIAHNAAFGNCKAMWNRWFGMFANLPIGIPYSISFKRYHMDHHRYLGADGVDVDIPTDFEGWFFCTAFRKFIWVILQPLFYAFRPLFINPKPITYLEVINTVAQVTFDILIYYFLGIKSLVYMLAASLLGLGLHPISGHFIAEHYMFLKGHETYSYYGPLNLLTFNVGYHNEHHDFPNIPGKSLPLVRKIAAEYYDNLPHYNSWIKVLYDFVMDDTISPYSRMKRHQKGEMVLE
Protocol: Measurement of Dihydroceramide Desaturase-1 (Des-1) Activity
Compounds were assessed for Des-1 inhibitory activity. Measurement of Des1 activity was performed by HPLC using intact Jurkat cells labeled with DhCer-C6-NBD as described previously (Munoz-Olaya, J. M. et al. ChemMedChem 2008, 3, 946-953) with modifications to enhance sensitivity and reproducibility. These modifications included the use of parental Jurkat cells, 0.5% serum in the culture media, and cell harvesting via centrifugation at 500×g to maximise ceramide extraction. Extracted samples (50 ul) were analysed on a Waters HPLC coupled to a fluorescence detector using a 30 cm C18 reverse-phase column eluted with 1 ml/min 20% H2O and 80% acetonitrile, both with a 0.1% of trifluoroacetic acid. NBD-labelled substrate and product were quantitated with an excitation and emission wavelengths of 465 nm and 530 nm, respectively.

[1] = tested on: Connective Tissue Growth Factor (CTGF) gene expression; test: Real time quantitative PCR in TGFβ-stimulated human hepatic stellate cells (LX2) to detect CTGF gene expression; type: cell-based; details: CTGF mRNA in TGFβ-stimulated LX2 cells vs vehicle control; for inhibition at 5 µM: LX-2, 5 μM; for inhibition at 1 µM: LX-2, 1 μM
Protocol: Real Time Quantitative Polymerase Chain Reaction in Human Hepatic Stellate Cells (LX2) to Detect Connective Tissue Growth Factor (CTGF) Gene Expression The hepatic stellate cell line, LX2 was maintained in DMEM (LifeTechnologies) with 2% heat-inactivated FBS, 100U penicillin (LifeTechnologies), 0.1 mg/mL streptomycin (LifeTechnologies), and 2 mM L-glutamine (LifeTechnologies) at 37° C. with 5% CO2. Cells were seeded into 6-well plates (200,000 cells per well, 2 mLs media) and grown overnight. The cells were changed to 2 mLs 0.5% FBS media for 24 hours prior to treatment. Treatments were added in 2 mLs fresh 0.5% FBS media (vehicle control, long/mL TGFβ alone (R&D Systems), 10 ng/mL TGFβ+inhibitors) and incubated for 24 hours. […] RNA was extracted using Qiagen RNeasy kit (cat #74104), according to manufacturer's instructions. RNA (1 μg) was used to generate cDNA using the Qiagen Quantitect Reverse Transcription Kit (cat #205311), and stored at -20° C. cDNA was diluted (1:25 final) and combined with Sybr Green (Qiagen cat #204143), forward and reverse primers (50 ng each) and run on Real Time PCR Thermocycler machine (RG-6000, Corbett) with the following PCR conditions: Hold 1: 50° C. for 2 min; Hold 2: 95° C. for 15 min; Cycling: 45 cycles of: 95° C. for 30 sec, 58° C. for 21 sec, 72° C. for 15 sec, Hold 3: 72° C. for 30 sec, Melt: 72° C. to 99° C. GAPDH primers (Forward: [NT]; Reverse: [NT] primers (Forward: [NT]; Reverse: [NT] primers available from Origene, cat #HP205671)].

IC50 (Des1 (h)) | inhibition at 1 µM (Des1 (h); Jurkat cells, 1 μM) | SMILES | inhibition at 5 µM [1] | further results
< 1000 nM | – | O=C(NCC(O)CO)c1ccc(Nc2ncc(-c3ccc(Cl)cn3)o2)cn1 (racemic) [Compound 116, rac-5-((5-(5-Chloropyridin-2-yl)oxazol-2-yl)amino)-N-(2,3-dihydroxypropyl)picolinamide hydrochloride] | 70 to 80% | –
< 1000 nM | – | N/C(=N\O)c1ccc(Nc2ncc(-c3ccc(Cl)cn3)o2)cn1 [Compound 90, 5-((5-(5-Chloropyridin-2-yl)oxazol-2-yl)amino)-N′-hydroxypicolinimidamide] | > 90% | –
> 1000 nM | 47% | N/C(=N\O)c1ccc(Nc2ncc(-c3ccc(OC(F)(F)F)cn3)o2)cn1 [Compound 99, N′-Hydroxy-5-((5-(5-(trifluoromethoxy)pyridin-2-yl)oxazol-2-yl)amino)picolinimidamide] | – | inhibition at 1 µM [1]: 1 to 10%; inhibition at 10 µM ([1]; LX-2, 10 μM): 70 to 80%
< 1000 nM | – | N/C(=N/O)c1cnc(Nc2ncc(-c3ccc(Cl)cn3)o2)cn1 [Compound 102, 5-((5-(5-Chloropyridin-2-yl)oxazol-2-yl)amino)-N′-hydroxypyrazine-2-carboximidamide] | 70 to 80% | –
< 1000 nM | – | N/C(=N/O)c1ccc(Nc2cnn(-c3ccc(Cl)cn3)c2)cn1 [Compound 103, 5-((1-(5-Chloropyridin-2-yl)-1H-pyrazol-4-yl)amino)-N′-hydroxypicolinimidamide] | 70 to 80% | –
< 1000 nM | – | N/C(=N\O)c1cnc(Nc2ncn(-c3ccc(C(F)(F)F)cc3)n2)cn1 [Compound 106, N′-Hydroxy-5-((1-(4-(trifluoromethyl)phenyl)-1H-1,2,4-triazol-3-yl)amino)pyrazine-2-carboximidamide] | – | inhibition at 1 µM [1]: 30 to 40%
< 1000 nM | – | N/C(=N/O)c1ccc(Nc2ncn(-c3ccc(C(F)(F)F)cn3)n2)cn1 [Compound 107, N′-Hydroxy-5-((1-(5-(trifluoromethyl)pyridin-2-yl)-1H-1,2,4-triazol-3-yl)amino)picolinimidamide] | > 90% | –
< 1000 nM | – | N/C(=N\O)c1cnc(Nc2ncn(-c3ccc(C(F)(F)F)cn3)n2)cn1 [Compound 108, N′-Hydroxy-5-((1-(5-(trifluoromethyl)pyridin-2-yl)-1H-1,2,4-triazol-3-yl)amino)pyrazine-2-carboximidamide] | 40 to 50% | –
< 1000 nM | – | Cn1nc(Nc2ccc(/C(N)=N/O)nc2)cc1-c1ccc(C(F)(F)F)cn1 [Compound 109, N′-Hydroxy-5-((1-methyl-5-(5-(trifluoromethyl)pyridin-2-yl)-1H-pyrazol-3-yl)amino)picolinimidamide] | > 90% | –
< 1000 nM | – | N/C(=N\O)c1cnc(Nc2ccn(-c3ccc(C(F)(F)F)cc3)n2)cn1 [Compound 111, N′-Hydroxy-5-((1-(4-(trifluoromethyl)phenyl)-1H-pyrazol-3-yl)amino)pyrazine-2-carboximidamide] | > 90% | –
< 1000 nM | – | N/C(=N\O)c1cnc(Nc2ccn(-c3ccc(C(F)(F)F)cn3)n2)cn1 [Compound 112, N′-Hydroxy-5-((1-(5-(trifluoromethyl)pyridin-2-yl)-1H-pyrazol-3-yl)amino)pyrazine-2-carboximidamide] | – | inhibition at 1 µM [1]: > 90%
< 1000 nM | – | N/C(=N\O)c1ccc(Nc2cnn(-c3ccc(C(F)(F)F)cc3)c2)cn1 [Compound 113, N′-Hydroxy-5-((1-(4-(trifluoromethyl)phenyl)-1H-pyrazol-4-yl)amino)picolinimidamide] | > 90% | –
< 1000 nM | – | N/C(=N/O)c1ccc(Nc2cn(-c3ccc(C(F)(F)F)cn3)nn2)cn1 [Compound 115, N′-Hydroxy-5-((1-(5-(trifluoromethyl)pyridin-2-yl)-1H-1,2,3-triazol-4-yl)amino)picolinimidamide] | > 90% | –
> 1000 nM | 47% | N/C(=N/O)c1ccc(Nc2ncc(-c3cnc(C(F)(F)F)cn3)o2)cn1 [Example 66, N′-Hydroxy-5-((5-(5-(trifluoromethyl)pyrazin-2-yl)oxazol-2-yl)amino)picolinimidamide] | – | –
< 1000 nM | – | Oc1ccc(Nc2nnc(-c3ccc(OC(F)(F)F)cc3)o2)nc1 [Example 67, 6-((5-(4-(Trifluoromethoxy)phenyl)-1,3,4-oxadiazol-2-yl)amino)pyridin-3-ol] | – | –
< 1000 nM | – | O=c1cc(Nc2ncc(-c3ccc(C(F)(F)F)cn3)o2)ccn1O [Example 68, 1-Hydroxy-4-((5-(5-(trifluoromethyl)pyridin-2-yl)oxazol-2-yl)amino)pyridin-2(1H)-one] | – | –
> 1000 nM | – | Cl.N=C(NO)c1ccc(Nc2nnc(-c3ccc(C(F)(F)F)cn3)o2)cn1 [Example 69, N′-Hydroxy-5-((5-(5-(trifluoromethyl)pyridin-2-yl)-1,3,4-oxadiazol-2-yl)amino)picolinimidamide] | – | % inhibition of Des1 at 1 μM (Des1 (h); Jurkat cells, 1 μM): no inhibition
> 1000 nM | 13% | N/C(=N/O)c1ccc(Nc2nnc(-c3ccc(Cl)cn3)o2)cn1 [Example 71, 5-((5-(5-Chloropyridin-2-yl)-1,3,4-oxadiazol-2-yl)amino)-N′-hydroxypicolinimidamide] | – | –
> 1000 nM | 8% | Cn1nc(-c2ccc(C(F)(F)F)cn2)cc1Nc1ccc(/C(N)=N\O)nc1 [Example 76, N′-Hydroxy-5-((1-methyl-3-(5-(trifluoromethyl)pyridin-2-yl)-1H-pyrazol-5-yl)amino)picolinimidamide] | – | –
> 1000 nM | 47% | Cn1nc(-c2ccc(C(F)(F)F)cc2)cc1Nc1ccc(/C(N)=N\O)nc1 [Example 77, N′-Hydroxy-5-((1-methyl-3-(4-(trifluoromethyl)phenyl)-1H-pyrazol-5-yl)amino)picolinimidamide] | – | –
< 1000 nM | – | N/C(=N\O)c1ccc(Nc2nc(-c3ccc(Cl)cc3)no2)cn1 [Example 78, 5-((3-(4-chlorophenyl)-1,2,4-oxadiazol-5-yl)amino)-N′-hydroxypicolinimidamide] | – | –
< 1000 nM | – | N/C(=N\O)c1cnc(Nc2nc(-c3ccc(Cl)cc3)no2)cn1 [Example 79, 5-((3-(4-chlorophenyl)-1,2,4-oxadiazol-5-yl)amino)-N′-hydroxypyrazine-2-carboximidamide] | – | –
> 1000 nM | 24% | N/C(=N\O)c1ccc(Nc2nc(-c3ccc(Cl)cn3)no2)cn1 [Example 80, 5-((3-(5-Chloropyridin-2-yl)-1,2,4-oxadiazol-5-yl)amino)-N′-hydroxypicolinimidamide] | – | –
> 1000 nM | 7% | N/C(=N\O)c1cnc(Nc2nc(-c3ccc(Cl)cn3)no2)cn1 [Example 81, 5-((3-(5-Chloropyridin-2-yl)-1,2,4-oxadiazol-5-yl)amino)-N′-hydroxypyrazine-2-carboximidamide] | – | –
< 1000 nM | – | N/C(=N\O)c1cnc(Nc2nc(-c3ccc(C(F)(F)F)cc3)no2)cn1 [Example 83, N′-Hydroxy-5-((3-(4-(trifluoromethyl)phenyl)-1,2,4-oxadiazol-5-yl)amino)pyrazine-2-carboximidamide] | – | –
> 1000 nM | 15% | N/C(=N\O)c1cnc(Nc2nc(-c3ccc(C(F)(F)F)cn3)no2)cn1 [Example 85, N′-hydroxy-5-((3-(5-(trifluoromethyl)pyridin-2-yl)-1,2,4-oxadiazol-5-yl)amino)pyrazine-2-carboximidamide] | – | –
> 1000 nM | 29% | N/C(=N\O)c1ccc(Nc2nc(-c3ccc(OC(F)(F)F)cn3)no2)cn1 [Example 88, N′-hydroxy-5-((3-(5-(trifluoromethoxy)pyridin-2-yl)-1,2,4-oxadiazol-5-yl)amino)picolinimidamide] | – | –
